Measured values published in ChEMBL document CHEMBL1154659, “Discovery and optimization of chromenotriazolopyrimidines as potent inhibitors of the mouse double minute 2-tumor protein 53 protein-protein interaction” (J Med Chem, 2009).
The source made the active and inactive calls. The calls are words filed in the database; no cut-off is given here.

Target: Tumour suppressor p53/oncoprotein Mdm2 (Homo sapiens, UniProt Q00987)
Assay: Inhibition of human MDM2/P53 interaction by HTRF assay
Assay type: protein assay

Tumour suppressor p53/oncoprotein Mdm2, sequence (P04637 whole entry): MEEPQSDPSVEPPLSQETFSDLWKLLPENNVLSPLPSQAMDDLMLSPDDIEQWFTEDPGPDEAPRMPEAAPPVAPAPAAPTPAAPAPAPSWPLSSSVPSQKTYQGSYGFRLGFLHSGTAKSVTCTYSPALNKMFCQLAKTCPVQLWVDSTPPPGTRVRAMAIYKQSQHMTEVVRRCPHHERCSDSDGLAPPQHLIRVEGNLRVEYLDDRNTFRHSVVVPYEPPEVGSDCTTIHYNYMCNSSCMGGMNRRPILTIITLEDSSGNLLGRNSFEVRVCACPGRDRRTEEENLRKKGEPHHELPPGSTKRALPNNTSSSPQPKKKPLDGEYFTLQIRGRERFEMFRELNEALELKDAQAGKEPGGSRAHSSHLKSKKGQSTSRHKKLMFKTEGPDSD
Tumour suppressor p53/oncoprotein Mdm2, sequence (Q00987 whole entry): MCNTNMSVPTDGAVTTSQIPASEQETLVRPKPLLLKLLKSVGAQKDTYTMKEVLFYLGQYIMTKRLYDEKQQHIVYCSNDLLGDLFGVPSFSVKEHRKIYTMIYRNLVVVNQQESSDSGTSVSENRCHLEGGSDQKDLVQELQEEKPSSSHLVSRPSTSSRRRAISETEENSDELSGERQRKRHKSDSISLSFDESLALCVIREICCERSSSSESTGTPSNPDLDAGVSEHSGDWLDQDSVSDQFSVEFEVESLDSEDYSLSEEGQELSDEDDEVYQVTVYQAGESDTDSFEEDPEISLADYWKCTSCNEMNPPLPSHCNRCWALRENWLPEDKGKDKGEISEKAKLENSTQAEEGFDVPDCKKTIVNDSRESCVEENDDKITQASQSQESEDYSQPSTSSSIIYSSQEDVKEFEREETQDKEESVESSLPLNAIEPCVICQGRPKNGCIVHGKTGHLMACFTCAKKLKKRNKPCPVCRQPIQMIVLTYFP

| IC50 [nM] | SMILES |
| --- | --- |
| > 100000 | CCc1ccc(C2Oc3ccccc3C3=C2C(c2ccc(Br)cc2)n2ncnc2N3C)cc1 (racemic) |
| 1720 | CN1C2=C(C(c3ccc(Br)cc3)Oc3cccc(F)c32)C(c2ccc(Br)cc2)n2ncnc21 (racemic) |
| 4740 | Cc1ccc(C2C3=C(c4ccccc4OC3c3ccc(Br)cc3)N(C)c3ncnn32)cc1 (racemic) |
| 3940 | COc1c(C)ccc2c1C1=C(C(c3ccc(Br)cc3)O2)C(c2ccc(Br)cc2)n2ncnc2N1C (racemic) |
| 990 | CN1C2=C(C(c3ccc(Br)cc3)Oc3cc(F)ccc32)C(c2ccc(Br)cc2)n2ncnc21 (racemic) |
| 6570 | CN1C2=C(C(c3ccc(F)cc3)Oc3ccccc32)C(c2ccc(Br)cc2)n2ncnc21 (racemic) |
| 440 | Cc1ccc2c(c1)C1=C(C(c3ccc(Br)cc3)O2)C(c2ccc(Br)cc2)n2ncnc2N1C (racemic) |
| 890 | CN1C2=C(C(c3ccc(Cl)cc3)Oc3ccccc32)C(c2ccc(Br)cc2)n2ncnc21 (racemic) |
| 2080 | CN1C2=C(C(c3ccc(C#N)cc3)Oc3ccccc32)C(c2ccc(Br)cc2)n2ncnc21 (racemic) |
| 1880 | CN1C2=C(C(c3ccc(Br)cc3)Oc3ccccc32)C(c2ccc(F)cc2)n2ncnc21 (racemic) |
| 1210 | CN1C2=C(C(c3ccc(Cl)cc3)Oc3ccccc32)C(c2ccc(Cl)cc2)n2ncnc21 (racemic) |
| 480 | Cc1cc2c(cc1F)OC(c1ccc(Br)cc1)C1=C2N(C)c2ncnn2C1c1ccc(Br)cc1 (racemic) |
| 14800 | CN1C2=C(C(c3ccc(F)cc3)Oc3ccccc32)C(c2ccc(F)cc2)n2ncnc21 (racemic) |
| 5840 | CN1C2=C(C(c3ccc(Br)cc3)Oc3ccccc32)C(c2ccc(C#N)cc2)n2ncnc21 (racemic) |
| 4630 | Cc1ccc(C2Oc3ccccc3C3=C2C(c2ccc(Br)cc2)n2ncnc2N3C)cc1 (racemic) |
| 9070 | CC#Cc1ccc(C2Oc3ccccc3C3=C2C(c2ccc(Br)cc2)n2ncnc2N3C)cc1 (racemic) |
| 3200 | CCc1ccc2c(c1)C1=C(C(c3ccc(Br)cc3)O2)C(c2ccc(Br)cc2)n2ncnc2N1C (racemic) |
| 3060 | CN1C2=C(C(c3ccc(Br)cc3)Oc3ccc(C#N)cc32)C(c2ccc(Br)cc2)n2ncnc21 (racemic) |
| 910 | CCOc1cccc2c1C1=C(C(c3ccc(Br)cc3)O2)C(c2ccc(Br)cc2)n2ncnc2N1C (racemic) |
| 3500 | CN1C2=C(C(c3ccc(Br)cc3)Oc3c(Cl)cccc32)C(c2ccc(Br)cc2)n2ncnc21 (racemic) |
| 1730 | CN1C2=C(C(c3ccc(Br)cc3)Oc3ccc(F)cc32)C(c2ccc(Br)cc2)n2ncnc21 (racemic) |
| 15100 | CN1C2=C(C(c3ccc(Br)cc3)Oc3cc(Cl)ccc32)C(c2ccc(Br)cc2)n2ncnc21 (racemic) |
| 2470 | C#Cc1ccc(C2Oc3ccccc3C3=C2C(c2ccc(Br)cc2)n2ncnc2N3C)cc1 (racemic) |
| 1400 | CN1C2=C(C(c3ccc(Br)cc3)Oc3ccc(Cl)cc32)C(c2ccc(Br)cc2)n2ncnc21 (racemic) |
| > 100000 | CN1C2=C(C(c3ccc(Br)cc3)Oc3c(Cl)cc(Cl)cc32)C(c2ccc(Br)cc2)n2ncnc21 (racemic) |

System: HCT-116
Assay: Induction of p21 mRNA in human HCT116 cells by RT-PCR
Assay type: functional, cell-based

| SMILES | Activity |
| --- | --- |
| Cc1ccc2c(c1)C1=C(C(c3ccc(Br)cc3)O2)C(c2ccc(Br)cc2)n2ncnc2N1C (single isomer, unassigned) | Dose-dependent effect |
| COc1ccc(C2=N[C@@H](c3ccc(Cl)cc3)[C@@H](c3ccc(Cl)cc3)N2C(=O)N2CCNC(=O)C2)c(OC(C)C)c1 | Dose-dependent effect |

System: HCT-116
Assay: Inhibition of human HCT116 cell proliferation after 16 hrs by BrdU assay
Assay type: functional, cell-based

| SMILES | Activity |
| --- | --- |
| Cc1ccc2c(c1)C1=C(C(c3ccc(Br)cc3)O2)C(c2ccc(Br)cc2)n2ncnc2N1C (single isomer, unassigned) | Active |
| COc1ccc(C2=N[C@@H](c3ccc(Cl)cc3)[C@@H](c3ccc(Cl)cc3)N2C(=O)N2CCNC(=O)C2)c(OC(C)C)c1 | Active |

System: SJSA-1
Assay: Induction of apoptosis in human SJSA1 cells assessed as caspase 3/7 activity after 48 hrs
Assay type: functional, cell-based

| SMILES | Activity |
| --- | --- |
| Cc1ccc2c(c1)C1=C(C(c3ccc(Br)cc3)O2)C(c2ccc(Br)cc2)n2ncnc2N1C (single isomer, unassigned) | Dose-dependent effect |
| COc1ccc(C2=N[C@@H](c3ccc(Cl)cc3)[C@@H](c3ccc(Cl)cc3)N2C(=O)N2CCNC(=O)C2)c(OC(C)C)c1 | Dose-dependent effect |

System: HCT-116
Assay: Inhibition of human p53 deficient HCT116 cell proliferation after 16 hrs by BrdU assay
Assay type: functional, cell-based

| SMILES | Activity |
| --- | --- |
| Cc1ccc2c(c1)C1=C(C(c3ccc(Br)cc3)O2)C(c2ccc(Br)cc2)n2ncnc2N1C (single isomer, unassigned) | inactive |
| COc1ccc(C2=N[C@@H](c3ccc(Cl)cc3)[C@@H](c3ccc(Cl)cc3)N2C(=O)N2CCNC(=O)C2)c(OC(C)C)c1 | inactive |

System: HCT-116
Assay: Inhibition of human p21 deficient HCT116 cell proliferation after 16 hrs by BrdU assay
Assay type: functional, cell-based

| SMILES | Activity |
| --- | --- |
| Cc1ccc2c(c1)C1=C(C(c3ccc(Br)cc3)O2)C(c2ccc(Br)cc2)n2ncnc2N1C (single isomer, unassigned) | inactive |
| COc1ccc(C2=N[C@@H](c3ccc(Cl)cc3)[C@@H](c3ccc(Cl)cc3)N2C(=O)N2CCNC(=O)C2)c(OC(C)C)c1 | inactive |
